Measured values reported in patent US20210292807A1, “METHOD FOR TESTING ANTIMICROBIAL SUSCEPTIBILITY” (priority 2017, published 2021).
Converted amounts (≈) assume the structure as drawn. Like-named read-outs stand apart in the source and are kept apart here.

Columns and labels:
[1] = test system: Staphylococcus aureus; experiment: Broth microdilution (BMD) MIC of Staphylococcus aureus isolates; format: cell-based
Description: The acoustic flow cytometry assisted method of the present invention was employed essentially as described in the previous working examples to determine susceptibility of Staphylococcus aureus to both cefoxitin and oxacillin. Susceptibility classification into S/NS and quantitative MIC values obtained using the acoustic flow cytometry assisted method were compared to results obtained using the conventional broth microdilution (BMD) method. Results are shown in Table 4 (Panels A and B) below and in FIGS. 9-12.

[2] = test system: Staphylococcus aureus; experiment: Acoustic flow cytometry-assisted susceptibility test (FAST) of Staphylococcus aureus isolates; format: cell-based; set-up: MIC dilution at which susceptibility-associated signature is observed by AFC: unit not given beside the values
Description: The material and methods utilized are briefly outlined herein below. The method used was similar to that outlined in the earlier examples albeit adjusted to allow for 3 hour incubation of Staphylococcus aureus to account for longer doubling times of Staphylococcus aureus relative to K. pneumoniae used in the previous examples.
Events were acquired by forward scatter and BL1 (515 nm-545 nm) using the Attune with voltages and thresholding set as follows: Forward Scatter Voltage: 3050; Forward Scatter Threshold: 3×1000 AND; Side Scatter Voltage: 2950; Side Scatter Threshold: IGNORE; BL1 Voltage: 1500; BL1 Threshold: 1×1000 AND.
Nine mL of MHB was aliquoted into twelve, 50 mL Falcon tubes. Each tube was labelled with the required final test concentration of antibiotic. […] Tubes were transferred to a 35° C. incubator to pre-warm.
One 1 mL of the overnight bacterial suspension was transferred into a 1.5 mL microcentrifuge tube and centrifuge at 7,800×g for about 5 minutes. The supernatant was discarded, and the pellet re-suspended in 1 mL of 0.1 μm filtered HBSS. This step was optionally repeat.
About 900 μL of HBSS was dispended into three 1.5 mL tubes—two clear tubes and one amber tube. About 100 μL of the bacterial suspension was inoculated into the first tube (clear) and serially dilute to reach 1:1000 by the third tube (amber). About 1 μl of SYTO 9 (5 μM final concentration) was added to the third tube. The dye was incubated, protected from light, for at least 5 minutes (individual sample types were optionally required with longer incubations) and then the Stained Control on the Attune acoustic flow cytometer instrument was read
The event density (events/μL) from your stained control aliquots was used to calculate the inoculum volume required to produce a 5.5×10^5 bacteria mL-1 in 10 mL of MHB. For example, (400 events/A)/(10 mL×550000)=7.3 μL, rounded up to the closest 10 μL.
The required volume of bacterial suspension was added from the overnight culture into each 50 ml tube with 9 ml of preheated MHB. Optionally incubate with shaking and protected from light, at 100 RPM at 35° C. for 60 minutes.
MHB (0.1 μm filtered) was used to dilute the antibiotics in this preparation. About one aliquot of antibiotic was removed from the −20° C. freezer and equilibrated to room temperature by ambient heat exchange, and diluted to reach a range of working stock concentrations that were are ten times the desired test concentrations.
Once the 60-minute incubation of bacterial suspension was complete, about 1 mL of 10× antibiotic stocks were added to tubes containing bacterial suspensions to reach final desired test concentrations (1 ml antibiotic and total volume 10 ml). The 50 mL tubes were returned to the incubator and incubated, by shaking at 100 RPM at 35° C., for a further 3 hours.
After 3 hours, about 1 mL suspension was harvested from each tube and transferred to a 1.5 mL clear microcentrifuge tube (marked with the corresponding antibiotic concentration), then centrifuge at 7,800×g for 5 minutes. The supernatant discarded and the pellet resuspended in 1 mL of 0.1 μm filtered HBSS. This wash step was optionally repeated.
Using the computer connected to the Attune, new samples were created ready for the collection of data. That the following parameters were set: Sensitivity: High Sensitivity; Flow Rate: 25 μL/minute; Acquisition Volume: 125 μL; Events Collected: No less than 20,000 from all gates, Time: 1 minute.
About 899 μL HBSS was dispensed into one 1.5 mL amber tube per sample. About 100 μL of suspension per tube was added to achieve a 1 in 10 dilution. About 1 μl of SYTO 9 was added to each tube and the tube vortexed for no more than 2 seconds (over vortexing can lead to bacterial clustering and/or attachment to tube walls).
Samples were placed on the SIP and acquired, in technical triplicate, as per the parameters outlined above. […]

[3] = test system: Klebsiella isolates; experiment: Acoustic flow cytometry-assisted susceptibility test (FAST), MICFAST and S/NS, Klebsiella isolates; format: cell-based, Klebsiella pneumoniae, Klebsiella oxytoca; set-up: MICBMD / MICFAST data point (FIG. 8): unit not given here; settings: 10 of 14 K. pneumoniae isolates
Description: A 1 mL aliquot of bacterial suspension was centrifuged, washed and resuspended in 1 mL filtered Hank's Buffered Salt Solution (HBSS; comprising about 0.137 M NaCl, about 5.4 mM KCl, about 0.25 mM Na2HPO4, about 0.1 g Glucose, about 0.44 mM KH2PO4, 1.3 mM CaCl2), 1.0 mM MgSO4, about 1.3 mM CaCl2), 1.0 mM MgSO4, and about 4.2 mM NaHCO3) and diluted in series (e.g., in a 1:10 serial dilution) to a final 1:1000 dilution.
One μL (microliter) of SYTO 9 stain (e.g., ThermoFisher Scientific) working stock solution was added to the final dilution at a final concentration of 5 μM and incubated for 5 minutes before counting bacterial events by acoustic flow cytometer (AFC) (Attune, ThermoFisher, Eugene, Oreg., USA), which was used to prepare a standardised inoculum density for susceptibility testing.
An aliquot of bacterial suspension was added to 50 mL centrifuge tubes (Corning, N.Y.) containing 9 mL of pre-warmed (37° C.) filtered MHB to produce a final density of 5×10^5-1×10^6 bacteria per mL. This suspension was incubated at 37° C. with shaking at 100 RPM for 30 minutes to obtain an actively dividing culture. An aliquot of antibiotic working solution from the previously described dilution series (appropriate to the concentration tested) was then added to each tube before a further 30-minute incubation with shaking, during which time a microbroth dilution (MBD) plate was prepared for overnight incubation at 37° C. as previously described in Clinical and Laboratory Standards Institute (2015) Performance Standards for Antimicrobial Susceptibility Testing: Informational Supplement. CLSI document M100-S25. Clinical and Laboratory Standards Institute, 950, West Valley Road, Suite 2500, Wayne, Pa., 19087, USA.
One millilitre of bacterial suspension from each antibiotic concentration was harvested by centrifugation at 7800×g for 5 minutes, washed and diluted 1:10 in filtered HBSS in a light-impermeable microcentrifuge tube, then stained with SYTO 9 stain at a final concentration of 5 μM, and incubated for 5 min before AFC sampling. Hoechst 33342 dye (NucBlue, Thermo Fisher Scientific, Eugene, Oreg., USA) and a SYTO 9/propidium iodide (PI) combination (Thermo Fisher Scientific) were used in a series of replicate experiments.
The acoustic flow cytometer employed was Attune acoustic flow cytometer (Thermo Fisher Scientific), having installed therein a 488 nm blue laser with a 530/30 nm filter on the photomultiplier tube for measuring fluorescence of cells assayed. Alternatively, the Attune NxT acoustic flow cytometer (Thermo Fisher Scientific) can be employed. AFC was calibrated at the beginning of each acquisition session using fluorescently labelled size calibration beads, in accordance with the manufacturer's instructions (ThermoFisher Scientific). The AFC settings were as follows: Forward Scatter (FSC) voltage 3100, FSC threshold 4×1000 AND, blue laser 1 (BL1—530/30 nm) voltage 1900, BL1 threshold 1×1000 AND, high sensitivity, flow rate 25 μL/minute, and an acquisition volume of 125 μL. Acquisition was halted after either collection of 20,000 events across all gates, or after 3 minutes, with each sample acquired in technical triplicate.
Collected data was exported in the FCS 3.0 file format and analysed in Flow v10.0 (FlowJo LLC, Ashland, Oreg., USA) by a single user, blinded to the MIC results by BMD (MICBMD).
Subsequent to quantitative MICFAST determination, the acoustic flow cytometer data were re-analysed in silico to produce a limited sub-set for qualitative susceptibility determination. The six antibiotic dilutions (0 mg/L, 0.25 mg/L, 1 mg/L, 2 mg/L, 4 mg/L and 16 mg/L) most relevant to qualitative susceptibility assessment were used. In silico analysis was restricted to the first technical triplicate of each recorded sample. Gating strategies remained consistent, with the addition of a gate restricting analysis to only those events recorded in the first 60 seconds of acquisition.

[4] = test system: K. pneumoniae; experiment: AFC susceptibility-associated signature for ceftriaxone and gentamicin (FIG. 19); format: cell-based, Klebsiella pneumoniae
Description: FIG. 19 provides graphical and pictorial representations showing rapid determination of susceptibly of bacteria to antimicrobial using the using the AFC-assisted susceptibility testing method of the invention.
This example sets out to investigate utility of the AFC-assisted susceptibility testing method of the invention as a clinical test and tool which can inform use antimicrobial choice in the early hours of sepsis presentation, e.g., by applying the AFC-assisted susceptibility testing method directly to blood cultures.

[5] = S. aureus isolate ATCC 29213, MSSA
[6] = S. aureus isolate W0096111, MSSA
[7] = S. aureus isolate W0226111, MSSA
[8] = S. aureus isolate W0236111, MSSA
[9] = S. aureus isolate W0296111, MSSA
[10] = S. aureus isolate W0816111, MSSA
[11] = S. aureus isolate W0866111, MRSA
[12] = S. aureus isolate W6496111, MSSA
[13] = S. aureus isolate W9196111, MSSA
[14] = S. aureus isolate W9346111, MRSA
[15] = S. aureus isolate W . . . 6111, MRSA
[16] = S. aureus isolate WACC 98, MRSA

## Cc1onc(-c2ccccc2)c1C(=O)N[C@@H]1C(=O)N2[C@@H]1SC(C)(C)[C@@H]2C(=O)O [Oxacillin, oxacillin]
[1]; [5]
  MIC (BMD): 0.25 µg/mL
[1]; [6]
  MIC (BMD): 0.25 µg/mL
[1]; [7]
  MIC (BMD): 0.25 µg/mL
[1]; [8]
  MIC (BMD): 0.25 µg/mL
[1]; [9]
  MIC (BMD): 0.25 µg/mL
[1]; [10]
  MIC (BMD): 0.25 µg/mL
[1]; [11]
  MIC (BMD): 16 µg/mL
[1]; [12]
  MIC (BMD): 1 µg/mL
[1]; [13]
  MIC (BMD): 0.25 µg/mL
[1]; [14]
  MIC (BMD): 32 µg/mL
[1]; [15]
  MIC (BMD): 8 µg/mL
[1]; [16]
  MIC (BMD): 256 µg/mL
[2]; S. aureus ATCC 29213
  MIC dilution at which susceptibility-associated signature is observed by AFC: 0.25
[2]; S. aureus WACC 98
  MIC dilution at which susceptibility-associated signature is observed by AFC: 256
[2]; [5]
  MIC (FAST): ≤ 1 µg/mL
[2]; [6]
  MIC (FAST): ≤ 1 µg/mL
[2]; [7]
  MIC (FAST): ≤ 1 µg/mL
[2]; [8]
  MIC (FAST): ≤ 1 µg/mL
[2]; [9]
  MIC (FAST): ≤ 1 µg/mL
[2]; [10]
  MIC (FAST): ≤ 1 µg/mL
[2]; [11]
  MIC (FAST): 16 µg/mL (≈ 39.9 µM)
[2]; [12]
  MIC (FAST): 1 µg/mL (≈ 2.49 µM)
[2]; [13]
  MIC (FAST): ≤ 1 µg/mL
[2]; [14]
  MIC (FAST): 32 µg/mL (≈ 79.7 µM)
[2]; [15]
  MIC (FAST): 16 µg/mL (≈ 39.9 µM)
[2]; [16]
  MIC (FAST): 256 µg/mL (≈ 638 µM)
[2]; clinical methicillin resistant S. aureus WACC 98, at EUCAST breakpoint 8 mg/L
  events remaining in Unexposed Cell Morphotype gate (FIG. 14B): above the 10% threshold for MICFAST
[2]; control methicillin susceptible S. aureus ATCC 25912, oxacillin concentration range
  events remaining in Unexposed Cell Morphotype gate (FIG. 14A): remains below the 10% MICFAST threshold

## CO/N=C(\C(=O)N[C@@H]1C(=O)N2C(C(=O)O)=C(CSc3nc(=O)c(=O)[nH]n3C)CS[C@H]12)c1csc(N)n1 [ceftriaxone]
[3]
  MICBMD / MICFAST data point (FIG. 8): 256
[4]; Klebsiella pneumoniae, K. pneumoniae susceptible type strain SSCC 43358, read-out: isolate's MIC (FIG. 19A)
  MIC: 0.25 µg/mL (≈ 0.451 µM)

## gentamicin
[4]; K. pneumoniae isolate 244606
  MIC: 1 µg/mL
